Test [1] addresses T1, Aldo-keto reductase family 1 member C3 (Homo sapiens, UniProt P42330).
T1 sequence (P42330 whole entry): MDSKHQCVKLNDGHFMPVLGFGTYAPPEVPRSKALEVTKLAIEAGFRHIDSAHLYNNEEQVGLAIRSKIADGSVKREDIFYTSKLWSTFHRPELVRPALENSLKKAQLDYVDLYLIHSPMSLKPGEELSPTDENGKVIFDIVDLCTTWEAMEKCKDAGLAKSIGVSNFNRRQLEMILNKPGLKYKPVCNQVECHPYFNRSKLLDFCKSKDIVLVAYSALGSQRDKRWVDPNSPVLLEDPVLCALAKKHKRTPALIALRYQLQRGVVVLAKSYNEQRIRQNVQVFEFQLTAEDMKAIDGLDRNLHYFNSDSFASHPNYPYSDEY
Nature of the test: Inhibition of human recombinant AKR1C3-mediated NADP+-dependent oxidation of S-(+)-1,2,3,4-tetrahydro-1-naphthol.

In test [2] the target is T2, Aldo-keto reductase family 1 member C2 (Homo sapiens, UniProt P52895).
T2 sequence (P52895 whole entry): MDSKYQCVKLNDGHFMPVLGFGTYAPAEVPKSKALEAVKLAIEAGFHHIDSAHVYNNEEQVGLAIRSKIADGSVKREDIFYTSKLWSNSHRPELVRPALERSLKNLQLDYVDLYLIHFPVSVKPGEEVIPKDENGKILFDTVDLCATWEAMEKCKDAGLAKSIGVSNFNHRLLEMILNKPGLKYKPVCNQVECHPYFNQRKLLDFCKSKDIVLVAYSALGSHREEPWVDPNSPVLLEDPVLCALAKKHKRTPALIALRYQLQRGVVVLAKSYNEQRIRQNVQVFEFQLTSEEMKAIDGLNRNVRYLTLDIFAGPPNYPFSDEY
Put plainly: Inhibition of human recombinant AKR1C2-mediated NADP+-dependent oxidation of S-(+)-1,2,3,4-tetrahydro-1-naphthol.

In the case of `COc1ccc2c(c1)c(CC(=O)NS(C)(=O)=O)cn2C(=O)c1ccc(Cl)cc1`, the 50% inhibitory concentration (IC50) (usually the point on the concentration scale where inhibition reaches its midpoint) in test [1] came to 12000 nM; in test [2], 16.7 µM.
On to `COc1ccc2c(c1)c(C)c(CC(C)C(=O)NS(C)(=O)=O)n2C(=O)c1ccc(Cl)cc1` (stereo unspecified), for which the IC50 in test [1] came to 5530 nM; in test [2], 116 µM.
For `COc1ccc(S(=O)(=O)NC(=O)Cc2cn(C(=O)c3ccc(Cl)cc3)c3ccc(OC)cc23)cc1`, the half-inhibitory concentration (IC50) in test [1] worked out at 5800 nM; in test [2], 39.9 µM.
For `COc1ccc2c(c1)c(C)c(CCC(=O)NS(=O)(=O)c1ccccc1C)n2C(=O)c1ccc(Cl)cc1`, the IC50 worked out at 3250 nM in test [1] and 21.1 µM in test [2].
`COc1ccc2c(c1)c(CC(=O)NS(=O)(=O)c1ccc3ccccc3c1)cn2C(=O)c1ccc(Cl)cc1`: the concentration for half-maximal inhibition (IC50) in test [1] was found to be 1190 nM; in test [2] it was 16.8 µM.
`COc1ccc2c(c1)c(C)c(CCC(=O)NS(=O)(=O)c1ccc3ccccc3c1)n2C(=O)c1ccc(Cl)cc1`: the IC50 stood at 2540 nM in test [1] and 72.3 µM in test [2].
Consider `COc1ccc2c(c1)c(CC(=O)NS(=O)(=O)c1ccc(C#N)cc1)cn2C(=O)c1ccc(Cl)cc1`, for which the values for the half-inhibitory concentration (IC50) in test [1] and in test [2] were 1110 nM and 33 µM, respectively.
For `COC(=O)Cc1c(C)n(C(=O)c2ccc(OC)cc2)c2ccc(OC)cc12`, in that order: 7590 nM and above 100 µM.
For `COc1ccc2c(c1)c(C)c(CCC(=O)NS(=O)(=O)c1ccc(C)cc1)n2C(=O)c1ccc(Cl)cc1`, the IC50 in test [1] was determined as 3110 nM; in test [2], 12.3 µM.
Consider `COc1ccc2c(c1)c(CC(=O)NS(=O)(=O)c1ccc(C(F)(F)F)cc1)cn2C(=O)c1ccc(Cl)cc1`, for which the 50% inhibitory concentration (IC50) in test [1] was 2070 nM; in test [2], 38.2 µM.
Turning to `COC(=O)Cc1c(C)n(C(=O)c2ccc(C(F)(F)F)cc2)c2ccc(OC)cc12`, the values for the IC50 in test [1] and in test [2] were 15700 nM and above 100 µM, respectively.
For `COc1ccc2c(c1)c(CC(=O)NS(=O)(=O)c1ccc(Oc3ccccc3)cc1)cn2C(=O)c1ccc(Cl)cc1`, in test [1], the half-inhibitory concentration (IC50) was determined as 2520 nM.
With `COc1ccc2c(c1)c(CC(=O)NS(=O)(=O)c1ccc(Cl)s1)cn2C(=O)c1ccc(Cl)cc1`, the IC50 in test [1] worked out at 3730 nM; in test [2], 15.1 µM.
Regarding `COc1ccc2c(c1)c(CC(=O)O)c(C)n2C(=O)c1cccc(C(F)(F)F)c1`, the 50% inhibitory concentration (IC50) was 2440 nM in test [1] and 19.5 µM in test [2].
As for `COc1ccc2c(c1)c1c(n2C(=O)c2ccc(Cl)cc2)CCC(C(=O)NS(C)(=O)=O)C1` (stereo unspecified), the IC50 in test [1] is 5070 nM; in test [2], above 100 µM.
The corresponding values for `COc1ccc2c(c1)c(CC(=O)O)cn2C(=O)c1ccc(F)cc1` are 4960 nM and above 100 µM.
Turning to `COC(=O)Cc1c(C)n(C(=O)c2ccc(C)cc2)c2ccc(OC)cc12`, the IC50 in test [1] is 7540 nM; in test [2], 43.6 µM.
As for `COc1ccc2c(c1)c(CC(=O)NS(=O)(=O)c1cc(C(F)(F)F)ccc1C(F)(F)F)cn2C(=O)c1ccc(Cl)cc1`, the 50% inhibitory concentration (IC50) in test [1] is 1940 nM; in test [2], 19.3 µM.
Consider `COc1ccc2c(c1)c(CC(=O)NS(=O)(=O)c1ccc(OC(F)(F)F)cc1)cn2C(=O)c1ccc(Cl)cc1`, for which the figures for the IC50 in test [1] and in test [2] were 2650 nM and 59.4 µM, respectively.
Consider `O=C(O)Cc1cn(C(=O)c2ccc(Cl)cc2)c2ccc(F)cc12`, for which the IC50 in test [1] was 500 nM; in test [2], 23.3 µM.
Turning to `COc1ccc2[nH]c(C)c(CC(=O)O)c2c1` [DESCHLOROBENZOYL INDOMETHACIN], the concentration for half-maximal inhibition (IC50) in test [1] was above 100000 nM; in test [2] it was 100 µM.
The corresponding values for `COc1ccc2c(c1)c(C)c(CCC(=O)NS(=O)(=O)c1ccc(C(F)(F)F)cc1)n2C(=O)c1ccc(Cl)cc1` are 1110 nM and 33.7 µM.
For `COc1ccc2c(c1)c1c(n2C(=O)c2cccc(C(F)(F)F)c2)CCC(C(=O)O)C1` (stereo unspecified), in that order: 279 nM and 100 µM.
In the case of `COc1ccc2c(c1)c(CC(=O)O)c(C)n2C(=O)c1ccc(F)cc1`, the figures for the half-inhibitory concentration (IC50) in test [1] and in test [2] were 710 nM and 61 µM, respectively.
For the molecule `COc1ccc2c(c1)c(CC(=O)NS(=O)(=O)c1ccc(C(C)=O)cc1)cn2C(=O)c1ccc(Cl)cc1`, the IC50 in test [1] stood at 2090 nM; in test [2] it was 17.3 µM.
Turning to `COc1ccc2c(c1)cc(C)n2C(=O)c1ccc(Cl)cc1`, the IC50 in test [1] worked out at 3560 nM; in test [2], 24 µM.
Regarding `COc1ccc2c(c1)c(C)c(CCC(=O)NS(=O)(=O)c1ccc(C(C)=O)cc1)n2C(=O)c1ccc(Cl)cc1`, the 50% inhibitory concentration (IC50) in test [1] amounted to 2650 nM; in test [2], 27.4 µM.
As for `COC(=O)Cc1cn(C(=O)c2ccc(Cl)cc2)c2ccc(OC)cc12`, the 50% inhibitory concentration (IC50) in test [1] was 11300 nM; in test [2], above 100 µM.
The corresponding values for `COc1ccc2c(c1)c(CC(=O)NS(=O)(=O)c1ccc(C)cc1)cn2C(=O)c1ccc(Cl)cc1` are 12400 nM and 42.7 µM.
The corresponding values for `COc1ccc2c(c1)c(CC(=O)NS(C)(=O)=O)c(C)n2C(=O)c1ccc(Cl)cc1` are 2240 nM and 65.4 µM.
As for `Cc1c(CC(=O)O)c2cc(F)ccc2n1C(=O)c1cccc(C(F)(F)F)c1`, the IC50 in test [1] is 2230 nM; in test [2], 7.84 µM.
Take `COc1ccc2c(c1)c(C)c(CC(C)C(=O)O)n2C(=O)c1ccc(Cl)cc1` (racemic): the IC50 in test [1] was determined as 290 nM; in test [2] it was 12.3 µM.
As to `CCC(=O)Cc1cn(C(=O)O)c2ccc(OC)cc12`, the IC50 in test [1] came to 2400 nM; in test [2] it was 100 µM.
As to `COc1ccc2c(c1)c(C)c(CC(C)(C)C(=O)O)n2C(=O)c1ccc(Cl)cc1`, the figures for the IC50 in test [1] and in test [2] were 120 nM and 9.82 µM, respectively.
For `COc1ccc2c(c1)c(CC(=O)O)cn2C(=O)c1cccc(C(F)(F)F)c1`, the concentration for half-maximal inhibition (IC50) was 5210 nM in test [1] and 100 µM in test [2].
For the molecule `COc1ccc2c(c1)c(C)c(CCC(=O)NS(=O)(=O)c1ccc(C(C)C)cc1)n2C(=O)c1ccc(Cl)cc1`, the IC50 in test [1] worked out at 4690 nM; in test [2] it was 55.3 µM.
For the molecule `CCC(=O)Cc1cn(C(=O)OC)c2ccc(OC)cc12`, the concentration for half-maximal inhibition (IC50) was 22800 nM in test [1] and above 100 µM in test [2].
On to `Cc1c(CCC(=O)O)c2cc(F)ccc2n1C(=O)c1ccc(Cl)cc1`, for which the values for the concentration for half-maximal inhibition (IC50) in test [1] and in test [2] were 290 nM and 13.5 µM, respectively.
The corresponding values for `COc1ccc(C(=O)n2c(C)c(CC(=O)O)c3cc(OC)ccc32)cc1` are 140 nM and 45.1 µM.
As for `COc1ccc2c(c1)c(C)c(CCC(=O)NS(=O)(=O)c1ccc(OC(F)(F)F)cc1)n2C(=O)c1ccc(Cl)cc1`, the figures for the half-maximal inhibitory concentration (IC50) in test [1] and in test [2] were 2500 nM and 40.4 µM, respectively.
Consider `COc1ccc2c(c1)c(CC(=O)O)cn2C(=O)c1ccc(C(F)(F)F)cc1`, for which the half-inhibitory concentration (IC50) in test [1] was 1080 nM; in test [2] it was above 100 µM.
For `COC(=O)Cc1c(C)n(C(=O)c2ccc(Cl)cc2)c2ccc(OC)cc12`, the values for the IC50 in test [1] and in test [2] were 5670 nM and above 100 µM, respectively.
Consider `COc1ccc2c(c1)c(CC(=O)NS(=O)(=O)c1ccc(Br)cc1)cn2C(=O)c1ccc(Cl)cc1`, for which the half-maximal inhibitory concentration (IC50) amounted to 3970 nM in test [1] and 39.9 µM in test [2].
For `COc1ccc2c(c1)c(CC(=O)NS(=O)(=O)c1ccc(F)cc1)cn2C(=O)c1ccc(Cl)cc1`, in that order: 7860 nM and 39.9 µM.
For `COc1ccc2c(c1)c1c(n2C(=O)c2ccc(Cl)cc2)CC(C(=O)O)CC1` (stereo unspecified), in that order: 340 nM and 48.2 µM.
The corresponding values for `COc1ccc2c(c1)c(CC(=O)NS(=O)(=O)c1ccc(C(C)C)cc1)cn2C(=O)c1ccc(Cl)cc1` are 6340 nM and 7.9 µM.
